Measurements: patent publication US20220354791A1, “MESOPOROUS POLYMERIC PARTICULATE MATERIAL” (Aston University, priority 2019, published 2022)

Assay: Dissolution testing of IBU-loaded mesoporous particles (USP I rotating basket)
Assay type: physicochemical
Conditions: after 120 mins; pH 3.0 medium + 0.25% SLS, 900 mL, 37° C., 100 rpm, 50 mg IBU in HPMC capsule
Method: Testing conditions: HCL-NaCl medium pH 3+0.25% SLS, 900 mL, USP apparatus 1 (rotating basket), 100 rpm, HPLC method (mobile phase: pH 3 phosphate buffer:acetonitrile (60:40); column: C18, 15 cm×4.6 mm, 5 μm; flow rate: 2 mL/min; injection volume: 20 μL; detector: UV, 254 nm).
Dissolution testing of IBU-loaded mesoporous particles as prepared in Example 4 was performed by using USP I apparatus (rotating basket, 100 rpm) in an Erweka DT 126 dissolution tester. Samples containing 50 mg of IBU were loaded into a HPMC hard-shell capsule and tested in 900 mL of pH 3.0 medium with 0.25% SLS at 37° C. The pH 3 medium was prepared by dissolving 2 g of sodium chloride and 2.5 g of SLS in 400 mL of deionised water, then adding 0.1 mL of hydrochloric acid 37%, and diluting with deionised water to 1000.0 mL. The concentrations of dissolved IBU were determined using a HPLC method with mobile phase of phosphate buffer pH 3: acetonitrile (60:40), C18 column (15 cm×4.6 mm, 5 μm), flow rate of 2 mL/min, injection volume of 20 μL, and UV detector at 254 nm in an Agilent 1200 HPLC system.

Ibuprofen dissolved: 73.4%
Structure (SMILES): CC(C)Cc1ccc(C(C)C(=O)O)cc1 (stereo not shown) [Ibuprofen raw material, Ibuprofen]
